Data set [1] concerns the target T1, SHP2 (SHP2223-565) (Homo sapiens, UniProt Q06124).
T1 construct: made in house; host or cells: E. coli BL21 (DE3)
T1 sequence (Q06124 223-565 limits assumed): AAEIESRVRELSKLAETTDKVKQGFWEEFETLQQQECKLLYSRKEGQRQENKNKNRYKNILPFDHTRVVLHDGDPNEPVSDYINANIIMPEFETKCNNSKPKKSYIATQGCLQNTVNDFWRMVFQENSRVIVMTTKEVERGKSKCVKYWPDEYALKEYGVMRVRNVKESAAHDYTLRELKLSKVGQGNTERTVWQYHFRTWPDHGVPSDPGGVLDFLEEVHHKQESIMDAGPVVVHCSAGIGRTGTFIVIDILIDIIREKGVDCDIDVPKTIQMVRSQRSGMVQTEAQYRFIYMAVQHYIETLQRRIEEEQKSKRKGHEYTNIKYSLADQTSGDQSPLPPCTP
In words: SHP2-catalyzed hydrolysis of 4-MUP in the presence of terpenoids. The data set is classed as biochemical, H. sapiens. As to conditions: for Ki: SHP2223-565. As for the experimental part: Enzyme kinetics. To examine terpenoid-mediated inhibition, we measured PTP-catalyzed hydrolysis of p-nitrophenyl phosphate (pNPP) or 4-methylumbelliferyl phosphate (4-MUP, used when KM for pNPP was large) in the presence of various concentrations of terpenoids. Each reaction included PTP (0.05 μM PTP1B/TCPTP or 0.1 μM SHP1/SHP2 in 50 mM HEPES, 0.5 mM TCEP, 50 μg/ml BSA), pNPP (0.33, 0.67, 2, 5, 10, and 15 mM) or 4-MUP (0.13, 0.27, 0.8, 2.27, 2.93, 4.53, 7.07, and 8 mM), inhibitor (with concentrations listed in the figures), buffer (50 mM HEPES pH=7.3, 50 μg/ml BSA), and DMSO at 10% v/v. We monitored the formation of p-nitrophenol by measuring absorbance at 405 nm every 10 seconds for 5 minutes on a SpectraMax M2 plate reader and the formation of 4-methylumbelliferyl by measuring fluorescence at 450 nm (370 nm ex, 435 nm cutoff, medium gain).
We used a custom MATLAB script to process all raw kinetic data. This script removed all concentration values that fell outside of either (i) the range of our standard curve (absorbance/fluorescence vs. μM; FIG. 39) or (ii) the initial rate regime (>10% of the pNPP or 4-MUP concentration used in the assay). When this step reduced kinetic dataset to fewer than ten points, we re-measured those datasets to collect at least ten. We fit final datasets, in turn, with a linear regression model (using Matlab's backslash operator).
We evaluated kinetic models in three steps: (i) We fit initial-rate measurements collected in the absence and presence of inhibitors to Michaelis-Menten and inhibition models, respectively (here, we used the nlinfit and fminsearch functions from MATLAB; TABLE 12). (ii) We used an F-test to compare the mixed model to the single-parameter model with the least sum squared error (here, we used the fedf function from MATLAB to assign p-values), and we accepted the mixed model when p<0.05. (iii) We used the Akaike's Information Criterion (AIC) to compare the best-fit single parameter model to each alternative single parameter model, and we accepted the “best-fit” model when the difference in AIC (Δi) exceed 5 for all comparisons.^78 We note: For AD, AB, and (+) 1-(10),4-cadinadiene this criterion was not met; both noncompetitive and uncompetitive models, however, yielded indistinguishable ICso's.
We used the MATLAB function “nlparci” to determine the confidence intervals of kinetic parameters, and we propagated those intervals to estimate corresponding confidence intervals for each IC50.

Data set [2] has as its target T2, PTP1B (Homo sapiens, UniProt P18031).
T2 sequence (P18031 1-321 limits assumed): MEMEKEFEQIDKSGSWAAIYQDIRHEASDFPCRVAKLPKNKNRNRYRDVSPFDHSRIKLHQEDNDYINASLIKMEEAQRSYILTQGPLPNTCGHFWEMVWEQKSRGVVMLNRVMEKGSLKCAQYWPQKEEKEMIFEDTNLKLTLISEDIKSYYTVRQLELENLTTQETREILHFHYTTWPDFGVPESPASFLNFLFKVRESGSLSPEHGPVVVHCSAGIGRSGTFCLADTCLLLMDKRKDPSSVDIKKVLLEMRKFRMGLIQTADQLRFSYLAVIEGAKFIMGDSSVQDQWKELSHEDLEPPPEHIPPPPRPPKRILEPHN
Description: Ligand efficiency (TABLE 15). Also noted: species or system H. sapiens. As to conditions: for IC50: PTP1B, the patent's own terpenoid inhibitors.

Data set [3] deals with T3, PTP1B (Homo sapiens, UniProt P18031).
T3 construct: In this study, we used a well-studied truncation variant (i.e., PTP1B1-321); His-tag; made in house; host or cells: E. coli BL21 (DE3), pET21b
T3 sequence (P18031 1-321): T2 sequence (P18031 1-321 limits assumed)
In words: X-ray crystallography of PTP1B soaked with ligand. Type of data set: binding, H. sapiens. The method, then:
X-ray crystallography. We prepared crystals of PTP1B by using hanging drop vapor diffusion. In brief, we added 2 μL of PTP1B (~600 μM PTP1B, 50 mM HEPES, pH 7.3) to 6 μL of crystallization solution (100 mM HEPES, 200 mM magnesium acetate, and 14% polyethylene glycol 8000, pH 7.5) and incubated the resulting droplets over crystallization solution for one week at 4° C. (EasyXtal CrystalSupport, Qiagen). We soaked crystals with ligand by transferring them to droplets formed with 6 μL of crystallization solution and 1 μL of ligand solution (10 mM in DMSO), which we incubated for 2-5 days at 4° C. We prepared all […] for freezing by soaking them in cryoprotectant formed from a 70/30 (v/v) mixture of buffer (100 mM HEPES, 200 mM magnesium acetate, and 25% polyethylene glycol 8000, pH 7.5) and glycerol.
We collected X-ray diffraction data through the Collaborative Crystallography Program at Lawrence Berkeley National Lab (ALS ENABLE, beamline 8.2.1, 100 K, 1.00003 Å). We performed integration, scaling, and merging of X-ray diffraction data using the xia2 software package^79, and we carried out molecular replacement and structure refinement with the PHENIX graphical interface,^80 supplemented with manual model adjustment in COOT^81 and one round of PDB-REDO^82 (the latter, only for the PTP1B-AD complex).

Usually Ki stands for a dissociation constant, usually derived from enzyme kinetics or from competition with a known ligand. In general, IC50 refers to the midpoint of a concentration-inhibition curve.

Read-outs that look alike come from different tables or passages of the source.

Turning to `C=C(C)[C@@H]1CC[C@@H](C)[C@@H]2CCC(C)=C[C@@H]21` [amorphadiene], in data set [1] (4-MUP, less potent on SHP2), the “potency against SHP2 relative to PTP1B” value is “three-fold”. The Ki in data set [1] (competitive model of inhibition, read-out: Fit par. Ki, competitive model) was 25.1 µM; in data set [1] (mixed model, competitive constant, read-out: Fit par. Ki,c, mixed model), 236 µM; in data set [1] (mixed model, uncompetitive constant, read-out: Fit par. Ki,u, mixed model), 132 µM; in data set [1] (noncompetitive model of inhibition, read-out: Fit par. Ki, noncompetitive model), 146 µM; in data set [1] (uncompetitive model of inhibition, read-out: Fit par. Ki, uncompetitive model), 117 µM. Also, the “ligand efficiency” value in data set [2] ((−2.303RT)/HAC * log(IC50)) was 0.39 kcal/mol-atom; in data set [2] (TABLE 15), “high”. For the same molecule, the IC50 in data set [2] is 50 µM. Besides, the “binding site on PTP1B (crystal structure)” value in data set [3] (crystal soaked with ligand, pdb entry 6W30) is recorded as “binds to the same allosteric site targeted by benzbromarone derivatives”.

Take `CC(C)=CCC=C(C)C1CC=C(C)CC1` (stereo not drawn) [α-bisabolene]: the “inhibition of SHP2” value in data set [1] (4-MUP) is on record as “low potency”. In addition, the “% inhibition of SHP2” value in data set [1] (at the solubility limit, 4-MUP) is reported as ≤ 25%. Further, the “ligand efficiency” value is 0.44 kcal/mol-atom in data set [2] ((−2.303RT)/HAC * log(IC50)) and “high” in data set [2] (TABLE 15). Also, in data set [2], the IC50 was 13 µM. For the same molecule, the “solubility (crystal soaking experiments)” value in data set [3] is listed as “poor solubility”.

Source of the values: patent US12729458B2, “Discovery and evolution of biologically active metabolites” (The Regents of the University of Colorado, a Body Corporate, priority 2020, dated 2026).
